Assay results as given in patent publication US20250041239A1, “ORALLY DISSOLVING ANTIMICROBIAL FILM COMPOSITIONS & METHODS OF THEIR USE” (ISHA Therapeutics LLC, priority 2022, published 2025).
In brackets after ≈: the same amount, converted by molar mass.

Legend:
Candida albicans = assay: Agar cup diffusion, zone of inhibition; assay type: cell-based
Source text: (§1) This Example provides a description of the antifungal activity of the active pharmaceutical ingredient amphotericin B in the orally dissolvable films disclosed herein compared to that of unmodified amphotericin B. Test organisms utilized in this experiment were Candida albicans and Candida tropicalis. Orally dissolvable amphotericin B-containing film(s) utilized in this Example were made according to the process described in Example 3.
(§2) Two different species of infectious fungal genus Candida were cultured. A first mixture of sabouraud dextrose agar and broth was inoculated with Candida albicans and allowed to sit at room temperature for a period of two days under aerobic conditions. A second mixture of sabouraud dextrose agar and broth was inoculated with Candida tropicalis and allowed to sit at room temperature for 2 days under aerobic conditions. This established two cultures (one each) of the test organisms.
(§3) To standardize the respective cultures, the optical density of each culture was adjusted using a 0.5 McFarland (turbidity) standard, approximating cultures to be approximately […] colony forming units per milliliter (cfu/mL).
(§4) Each respective suspension was mixed until homogeneous to provide a final culture density of about 1×10^4 cfu/mL.
(§5) Agar cup diffusion was used for testing antifungal activity of the test compositions. 0.1 mL of each respective sample of amphotericin B or amphotericin B-containing film was provided in a cylinder. Film concentration was 1.8 mg amphotericin B per film. Each test plate contained two samples (two cylinders). Tests were performed in triplicate (3 plates per test composition). Plates were incubated at room temperature for a period of 2 days as amphotericin B test compositions were allowed to diffuse into the agar layer containing test organism(s).
(§6) Amphotericin B and amphotericin B-containing films were then evaluated for in vitro antifungal activity by measuring the zone of inhibition and microbial inhibition concentration (MIC) of each sample. Results are shown in FIGS. 2A, 2B, and 2C for the test organism Candida albicans and FIGS. 3A, 3B, and 3C for the test organism Candida tropicalis. Therein, amphotericin B samples are indicated as “A” and amphotericin B-containing films are indicated as “B”.

Candida tropicalis = assay: Agar cup diffusion, zone of inhibition; assay type: cell-based
Source text: as §1, §2, §3, §4, §5, §6

[1] = physiological pH; cited from earlier work
Candida spp. = assay: Resazurin microtiter assay (REMA), MIC, Candida spp. tested; assay type: cell-based; details: Candida albicans and Candida tropicalis; read-out: average MIC against Candida spp. tested
Description: This Example provides a description of antifungal efficacy testing wherein minimum inhibitor concentration (MIC) of the active pharmaceutical ingredient amphotericin B in the orally dissolvable films disclosed herein compared to that of unmodified amphotericin B. The test organisms utilized in this experiment were Candida tropicalis and Candida albicans.
A resazurin microtiter assay (REMA) assay was performed using orally dissolvable films prepared according to the process described in Example 3 and unmodified amphotericin B. Samples were run in triplicate as Sets 1-3 for each test material against each pathogen.

[2] = 0.1 mL sample, room temperature, 2 days

What does the source list for C[C@@H]1[C@H](O)[C@@H](C)/C=C/C=C/C=C/C=C/C=C/C=C/C=C/[C@H](O[C@@H]2O[C@H](C)[C@@H](O)[C@H](N)[C@@H]2O)C[C@@H]2O[C@](O)(C[C@@H](O)C[C@@H](O)[C@H](O)CC[C@@H](O)C[C@@H](O)CC(=O)O[C@H]1C)C[C@H](O)[C@H]2C(=O)O [AmpB, (1R,3S,5R,6R,9R,11R,15S,16R, 17R, 18S, 19E,21E,23E, 25E, 27E,29E,31E,33R,35S,36R,37S)-33-[(2R,3S,4S,5S,6R)-4-amino-3,5-di hydroxy-6-methyloxan-2-yl]oxy-1,3,5,6,9,11,17,37-octahydroxy-15,16,18-trimethyl-13-oxo-14,39-dioxabicyclo[33.3.1]nonatriaconta-19,21,23, 25, 27,29,31-heptaene-36-carboxylic acid]?
Zone of Inhibition, Set 1 (Candida albicans; [2]): 19 mm; Zone of Inhibition, Set 2 (Candida albicans; [2]): 19 mm; Zone of Inhibition, Set 3 (Candida albicans; [2]): 20 mm; Effective Zone of Inhibition (Candida albicans; mean of Sets 1-3): 19.33 ± 0.57 mm; Zone of Inhibition, Set 1 (Candida tropicalis; [2]): 20 mm; Zone of Inhibition, Set 2 (Candida tropicalis; [2]): 22 mm; Zone of Inhibition, Set 3 (Candida tropicalis; [2]): 22 mm; Effective Zone of Inhibition (Candida tropicalis; mean of Sets 1-3): 21.33 ± 1.15 mm; solubility in saline [1]: insoluble; MIC (Candida spp.): ~1.1 µg/mL (≈ 1.19 µM)
